This passage reports Activity results from ChEMBL document CHEMBL6103573, “Discovery of novel thienopyridine indole derivatives as inhibitors of tubulin polymerization targeting the colchicine-binding site with potent anticancer activities” (Eur J Med Chem, 2025).

Data set [1] is described as follows: Toxicity in female BALB/c-nu nude mouse xenografted with human MGC-803 cells assessed as change in kidney morphology at 5 mg/kg, po administrated every other day for 11 times and measured after 21 days by hematoxylin and eosin staining based analysis. Conditions: in vivo, 504 h, time 21 day. Format: organism-based. Background: A xenograft is tissue or cells of one species grown in another, often human tumour cells in immunodeficient mice.

For data set [2], the system named is HGC-27. Briefly: Induction of apoptosis in human HGC-27 cells assessed as early apoptotic cells at 2.0 nmol/L incubated for 48 hrs by Annexin V-FITC/propidium iodide staining based flow cytometry analysis (reference value: 2.04 %). Format: functional.
For data set [3], the system named is HGC-27. Briefly: Induction of apoptosis in human HGC-27 cells assessed as increase in total apoptotic rate at 2 nmol/L incubated for 48 hrs by Annexin V-FITC/propidium iodide staining based flow cytometry analysis relative to control. Format: functional. A general note: Flow cytometry measures light scatter and fluorescence of single cells or particles in a stream.

Each structure is given as a SMILES string.

Consider `CN(c1ccc2c(ccn2C)c1)c1nc(N2CCCC2)nc2sccc12`, for which the Activity entry in data set [1] is “Non-toxic”; in the data set on HGC-27 [2] it was 14.4%; in the data set on HGC-27 [3], 14%.
